Test results as given in patent publication US5045566A, “Novel imidate insecticides” (ICI Americas Inc., priority 1989, dated 1991).

Assays:
Format in all cases: in vivo
[1] = test system: Housefly [Musca domestica]; assay: Housefly contact mortality in dishes (HF), 48 hours; settings: μg of test compound per 25 female flies
Procedure, shortened: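 Dry-film exposure of 25 female houseflies per cage, 48 h; LC50 as μg per 25 flies.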

[2] = test system: Black Bean Aphid [Aphis fabae (Scop.)]; assay: Black bean aphid spray test on nasturtium (BBA), 48 hours; settings: percent of test compound in sprayed solution
Procedure, shortened: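 LC50, given as percent test compound in the sprayed liquid, was calculated from dosage-mortality curves using concentrations from 0.05% downward. Sprays in 50:50 acetone-water went to runoff on ~5 cm nasturtiums carrying 25-50 aphids of mixed ages, one day after infestation. Deaths were counted 48 h later under greenhouse conditions.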

[3] = test system: Tobacco Budworm [Heliothis virescens (Fabricius)] eggs; assay: Tobacco budworm eggs (TBW-E); settings: percent in solution; 2-day old eggs
Procedure, shortened: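 Paper towel patches bearing 2-day old eggs were dipped in acetone solutions of compound, then set in petri dishes over larval rearing medium at 78° F. Mortality was scored once all control eggs had hatched and larvae were feeding. LC50, from dosage-mortality curves, is given as percent compound in solution.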

[4] = test system: Cabbage Looper [Trichoplusia ni (Hubner)]; assay: Cabbage looper leaf dip (CL), 3-5 days; settings: percent in solution, second-instar larvae
Procedure, shortened: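 Compounds in 50-50 acetone-water were applied by dipping squash cotyledons (about 1×1.5 in) for 2-3 s; dried leaves went into petri dishes on moist filter paper with 5 second-instar larvae under high humidity. Mortality was scored after 3-5 days; LC50 from dosage-mortality curves, as percent compound in solution.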

[5] = test system: Maize weevil [Sitophilus zeamais (Motschulsky)]; assay: Maize weevil on dipped corn seeds (MW), 48 hours; settings: percent in solution, adult weevils
Procedure, shortened: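 LC50, given as percent of compound in dipping solution, comes from dosage-mortality curves over concentrations descending from 0.01%. Four corn seeds soaked 2-3 s in 50:50 acetone:water solution were dried and held with 10 adult weevils, about 25° C, mortality read after 48 h.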

Structure (SMILES)	LC50 HF [1] [µg]	LC50 BBA [2] [%]	LC50 TBW E (eggs) [3] [%]	LC50 CL [4] [%]	LC50 MW [5] [%]
COc1ccc(N=C(OCc2ccc(F)c(Oc3ccc(Cl)cc3)c2)C(C)C)cc1Cl [Compound 410]	< 100	0.0025	> 0.1	> 0.1	> 0.01
CCc1ccccc1N=C(OCc1cccc(Oc2ccc(F)cc2)c1)C(C)C [Compound 411]	< 100	> 0.05	> 0.1	> 0.1	> 0.01
COc1ccc(N=C(OCc2ccc(F)c(Oc3ccc(Cl)cc3)c2)C(C)C)cc1 [Compound 412]	< 100	0.0032	> 0.1	> 0.1	> 0.01
CC(C)C(=Nc1ccc(F)c(I)c1)OCc1cccc(Oc2ccc(Cl)cc2)c1 [Compound 413]	< 100	> 0.05	0.04	0.0007	> 0.01
CC(C)C(=Nc1ccc(S(C)(=O)=O)cc1)OCc1ccc(F)c(Oc2ccc(F)cc2)c1 [Compound 414]	< 100	> 0.05	> 0.1	0.0024	> 0.01
C=C(C)C(=Nc1ccc(F)c(Cl)c1)OCc1ccc(F)c(Oc2ccc(Cl)cc2)c1 [Compound 415]	< 100	0.0007	0.035	0.00075	> 0.01
C=C(C)C(=Nc1ccc(F)c(Cl)c1)OCc1ccc(F)c(Oc2ccccc2)c1 [Compound 416]	< 100	0.0035	0.018	0.00027	> 0.01
C=C(C)C(=Nc1ccc(F)c(Cl)c1)OCc1cccc(Oc2ccccc2)c1 [Compound 417]	< 100	0.004	0.04	0.0008	> 0.01
CC(C)C(=Nc1ccc(OCC(F)(F)F)c(Cl)c1)OCc1cccc(Oc2ccc(F)cc2)c1 [Compound 420]	> 100	0.004	0.05	0.00075	> 0.01
CC(C)C(=Nc1ccc(OCC(F)(F)F)c(Cl)c1)OCc1cccc(Oc2ccc(Cl)cc2)c1 [Compound 421]	> 100	> 0.05	< 0.1	0.002	> 0.01
CC(C)C(=Nc1ccc(OCC(F)(F)F)cc1)OCc1ccc(F)c(Oc2ccccc2)c1 [Compound 422]	< 100	> 0.05	0.05	0.00075	> 0.01
CC(C)C(=Nc1ccc(OCC(F)(F)F)cc1)OCc1cccc(Oc2ccccc2)c1 [Compound 423]	> 100	> 0.05	> 0.1	0.002	> 0.01
CC(C)C(=Nc1ccc(OCC(F)(F)F)c(Cl)c1)OCc1ccc(F)c(Oc2ccccc2)c1 [Compound 424]	> 100	0.002	0.035	0.00038	> 0.01
CC(C)C(=Nc1ccc(OCC(F)(F)F)c(Cl)c1)OCc1cccc(Oc2ccccc2)c1 [Compound 425]	> 100	0.0035	> 0.1	0.00075	> 0.01
CCOc1cccc(N=C(OCc2ccc(F)c(Oc3ccc(F)cc3)c2)C(C)C)c1 [Compound 426]	> 100	0.0012	> 0.1	0.002	> 0.01
